In brackets after ≈: the same amount, converted by molar mass.
The molecules below were run on anti-GEN scFv-AP fusion protein (assay: direct competitive ELISA). Conditions: dcELISA, AP substrate p-nitrophenyl phosphate, OD 405 nm.
Type: binding, murine

| IC50 [ng/mL] | Molecule |
| --- | --- |
| 7.693 (≈ 0.0161 µM) | CNC(C)C1CCC(N)C(OC2C(N)CC(N)C(OC3OCC(C)(O)C(NC)C3O)C2O)O1 (stereo not shown) [Gentamicin] |

These molecules were tested on anti-GEN scFv-AP fusion protein (assay: direct competitive chemiluminescent enzyme immunoassay). Conditions: dcCLEIA; CR=[IC50(gentamicin)/IC50(analyte)]×100%.
Type: binding, murine

| Molecule | Cross-reactivity [%] |
| --- | --- |
| CNC(C)C1CCC(N)C(OC2C(N)CC(N)C(OC3OCC(C)(O)C(NC)C3O)C2O)O1 (stereo not shown) [Gentamicin] | 100 |
| Neomycin | <0.10 |

The remaining lines, values ahead:

| Cross-reactivity [%] | Molecule |
| --- | --- |
| <0.10 | CC1(C)S[C@@H]2[C@H](NC(=O)[C@H](N)c3ccccc3)C(=O)N2[C@H]1C(=O)O [Ampicillin] |
| <0.10 | [H]/N=C(/N)N[C@H]1[C@H](O)[C@@H](O)[C@H](O[C@@H]2O[C@@H](C)[C@](O)(C=O)[C@H]2O[C@@H]2O[C@@H](CO)[C@H](O)[C@@H](O)[C@@H]2NC)[C@@H](N/C(N)=N\[H])[C@@H]1O [Streptomycin] |
| <0.10 | NC[C@H]1O[C@H](O[C@H]2[C@H](O)[C@@H](O[C@H]3O[C@H](CO)[C@@H](O)[C@H](N)[C@H]3O)[C@H](N)C[C@@H]2N)[C@H](O)[C@@H](O)[C@@H]1O [kanamycin] |
| <0.10 | O=C(N[C@H](CO)[C@H](O)c1ccc([N+](=O)[O-])cc1)C(Cl)Cl [Chloramphenicol] |
